Data set [1] in a line: Hygroscopicity of crystalline form A by dynamic vapor sorption (DVS). The class given is physicochemical. Conditions: 25° C. and 80% RH. The procedure:
Instrument model: TA Instruments Q5000 SA dynamic moisture adsorption instrument.
Test conditions: 1 mg to 10 mg sample was weighed and placed in a DVS sample tray for testing.
The detailed DVS parameters were as follows: temperature: 25° C., balance: dm/dt=0.01%/min for 15.00 min, drying: 90 min at 0% RH, RH (%) test gradient: 10% RH (%), test gradient range: 0%-80%-0%.
The hygroscopicity evaluation is classified as follows:
Experimental material: TA Instruments Q5000 SA dynamic moisture adsorption instrument
Experimental method: 1 mg to 10 mg of sample was weighted and placed in a DVS sample tray for testing.

The nature of data set [2]: Solid stability test of crystalline form A. Conditions: open, 10 days. It counts as physicochemical. The text has this: […] Samples in duplicate were placed under each condition, and the samples for XRPD detection and melting points were placed separately. Samples placed under different conditions were sampled for XRPD detection at the planned test end point, and the test results were compared with the initial test results at Day 0.

Data set [3] concerns the target T1, thyroid receptor β (THRβ) (Homo sapiens, UniProt P10828).
T1 construct: expressed in transfected cells; host or cells: HEK293T
T1 sequence (P10828 217-461 limits assumed): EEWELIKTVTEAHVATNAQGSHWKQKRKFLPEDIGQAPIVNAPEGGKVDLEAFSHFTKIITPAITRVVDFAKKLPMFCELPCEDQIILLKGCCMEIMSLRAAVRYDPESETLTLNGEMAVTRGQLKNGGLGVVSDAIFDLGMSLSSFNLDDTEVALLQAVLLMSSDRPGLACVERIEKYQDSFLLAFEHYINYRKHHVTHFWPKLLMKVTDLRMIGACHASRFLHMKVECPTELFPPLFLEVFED
In words: Cytological activity test of thyroid receptor β (luciferase reporter gene in HEK293T cells). The class given is cell-based. Conditions: read-out: EC50 of THR β in vitro cell activity. The text has this:
In this study, the fluorescence reporter gene experiment method was used to evaluate the excitatory effects of the two compounds to be tested on THR β target.
PGL4.35 [luc2P/9XGAL4UAS/Hygro] contains nine GALA-UAS repeat sequences (upstream activation sequences). This sequence drives the transcription of luciferase reporter gene luc2P, in response to the binding of the fusion protein containing Gal4 DNA binding domain with the ligand binding domain of thyroid receptor β (THR β) in pBIND THRβ vector. Stimulation on THRβ by the test sample will lead to the increase of luminescence signal.
The positive compound was dissolved in DMSO to prepare a 5 mM stock solution, and then diluted to a 0.5 mM stock solution. All compounds were dissolved in DMSO and stored in a refrigerator at −20° C. […]
2) HEK293T cells were cultured according to ATCC standard, and the cells were tested in exponential growth period. […] The cells were collected and counted. […]
5) The Britelite plus detection reagent was placed at room temperature. […] Envision was used to detect the luminescence value.
6) Agonism percentage is calculated as follows:
[formula] • RLU: Resulting Luminescence • RLUpositive control: average value of luminescence of all positive control holes in the whole plate. • RLUnegative control: average value of luminescence of all negative control holes in the whole plate. […]

Data set [4] addresses thyroid hormone receptor β (THR β) (Homo sapiens, UniProt P10828). In words: In vitro enzyme activity test of thyroid receptor β (TR-FRET, binding of THRβ LBD with co-activating peptide SRC2-2). It counts as biochemical. The procedure:
Time-resolved fluorescence resonance energy transfer (TR-FRET) experimental method was used to evaluate the agonist activity in vitro of the compounds to be tested through the binding of thyroid hormone receptor β (THR β) with its co-activating peptide SRC2-2.
GST tag was fused to THR β ligand binding domain (THR β LBD), and its co-activating peptide SRC2-2 was biotinylated. The binding capacity of THR β LBD to SRC2-2 was determined by detecting the tightly bound Europium-labeled anti-GST antibody and Streptavidin labeled with D2 with TR-FRET.
1) the compounds to be tested were dissolved in DMSO to prepare a 30 mM stock solution that could be stored in a dryer at room temperature for three months. If it is stored for a long time, it will be placed in a refrigerator at −20° C.
The activity rate is calculated as follows: […]
Ratio valuepositive control: average value of the ratios of all positive control holes in the whole plate.
Ratio valuenegative control: average value of the ratios of all negative control holes in the whole plate.
The EC50 (half excited concentration) of the compound was obtained by using the following nonlinear fitting formula.
X: log value of compound concentration; Y: activity rate of compound.
(In general: Time-resolved FRET reads energy transfer from a long-lived donor to a nearby acceptor.)

Data set [5] can be described thus: Pharmacokinetic evaluation in rats (liver-blood ratio). It counts as in vivo, CD rats. On the procedure: To determine the pharmacokinetic parameters of the compound represented by formula (I) in rats.
The animals were given the compound at a dose of 5 mg/kg at a concentration of 0.5 mg/mL. Animals were cross-collected for plasma samples at 2, 6 and 10 h after administration. The drug concentration in the plasma samples was determined by LC-MS/MS method, and the kinetic parameters of the test drugs obtained were found in Table 25: […]

Where two headings read alike, the source gives them in different places.

thyroid hormone receptor β (THR β), sequence (P19793 whole entry partner, other chains not shown, the tested form may be a part): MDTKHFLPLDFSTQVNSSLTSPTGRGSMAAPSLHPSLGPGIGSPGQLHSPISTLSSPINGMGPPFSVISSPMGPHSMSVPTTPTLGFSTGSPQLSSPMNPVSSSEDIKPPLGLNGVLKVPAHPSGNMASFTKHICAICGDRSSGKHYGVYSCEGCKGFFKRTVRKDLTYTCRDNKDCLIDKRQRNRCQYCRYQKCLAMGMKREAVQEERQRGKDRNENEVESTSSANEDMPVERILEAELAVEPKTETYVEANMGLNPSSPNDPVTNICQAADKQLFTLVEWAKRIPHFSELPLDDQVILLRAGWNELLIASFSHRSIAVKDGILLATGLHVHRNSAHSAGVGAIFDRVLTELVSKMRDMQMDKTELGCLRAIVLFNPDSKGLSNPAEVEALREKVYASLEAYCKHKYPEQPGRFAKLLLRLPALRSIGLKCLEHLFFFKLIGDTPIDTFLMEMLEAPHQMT

Turning to `C[C@@H]1CCc2c(Oc3c(Cl)cc(-n4nc(C#N)c(=O)[nH]c4=O)cc3Cl)ccc(=O)n21` [crystalline form A], the hygroscopicity classification entry in data set [1] is “slight hygroscopicity”. In addition, the “hygroscopic weight gain ΔW” value in data set [1] (DVS) was found to be 0.6%. Besides, the “Crystalline form (XRPD) after storage” value in data set [2] (25° C./65% RH), in data set [2] (25° C./85% RH), in data set [2] (40° C./75% RH) and in data set [2] (50° C.) was “Crystalline form A” in each case.

For orientation: EC50 means the midpoint of the concentration-response curve. On to `C[C@@H]1CCc2c(Oc3c(Cl)cc(-n4nc(C#N)c(=O)[nH]c4=O)cc3Cl)ccc(=O)n21` [Compound represented by formula (I)], for which the EC50 was determined as 214 nM in data set [3] and 46 nM in data set [4]. In data set [5] (male, CD, liver/plasma, rat, PO, 5.0 mg/kg, 2 h, read-out: L/P concentration ratio), the Kp at 2 h is 7.7. Further, the Kp at 6 h in data set [5] (male, CD, liver/plasma, rat, PO, 5.0 mg/kg, 6 h, read-out: L/P concentration ratio) was 22.1. Besides, the Kp at 10 h in data set [5] (male, CD, liver/plasma, rat, PO, 5.0 mg/kg, 10 h, read-out: L/P concentration ratio) was found to be 23.6. In addition, the concentration at 2 h in data set [5] (male, CD, liver, rat, PO, 5.0 mg/kg, 2 h, read-out: Liver drug concentration L) turned out to be 1180 ng/g; in data set [5] (male, CD, plasma, rat, PO, 5.0 mg/kg, 2 h, read-out: Blood drug concentration P) it was 153 ng/mL. Besides, the concentration at 6 h in data set [5] (male, CD, liver, rat, PO, 5.0 mg/kg, 6 h, read-out: Liver drug concentration L) turned out to be 746 ng/g; in data set [5] (male, CD, plasma, rat, PO, 5.0 mg/kg, 6 h, read-out: Blood drug concentration P), 33.8 ng/mL. Also, the concentration at 10 h is 238 ng/g in data set [5] (male, CD, liver, rat, PO, 5.0 mg/kg, 10 h, read-out: Liver drug concentration L) and 10.1 ng/mL in data set [5] (male, CD, plasma, rat, PO, 5.0 mg/kg, 10 h, read-out: Blood drug concentration P). The half-life in data set [5] (male, CD, plasma, rat, PO, 5.0 mg/kg, read-out: T½ (converted)) is 3.7 h. In addition, in data set [5] (rat, PO, 5.0 mg/kg), the “liver targeting (conclusion)” value is “Conclusion: The blood drug concentration of the compound represented by formula (I) in rats was relatively low, and the liver drug concentration was relatively high, so the compound represented by formula (I) has good liver targeting”. Moreover, in data set [5] (rats), the blood drug concentration result is recorded as “low”. For the same compound, the liver drug concentration entry in data set [5] (rats) is on record as “relatively high”. For the same compound, in data set [5] (rats), the liver targeting result was “good liver targeting properties”.

(Values after patent US20250353845A1, “THYROID HORMONE BETA RECEPTOR AGONIST, CRYSTAL FORM, PREPARATION METHOD AND USE” (KPC PHARMACEUTICALS, INC, priority 2022, published 2025).)
